# Assay results published in the supplement of paper PMC10307832.
# Columns and labels:
# Experiment in all cases: relative viability (nuclei count vs DMSO), 5 days (fraction); higher = more cells survive
# [1] = tested on: NCI-H3122
# Outline: (§1)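 One day after seeding in 1536-well plates, lung cancer cell lines were dosed by pin tool. Dosing was either single-drug or a fixed anchor-drug dose plus five library-drug doses (not always all listed) in √10 steps. After 5 days, nuclei were stained in one fix-and-stain step and counted on 4× images, and relative viability is the nuclei count of treated wells over that of vehicle wells, given as the median of duplicate plates.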
# [2] = tested on: HCC-366
# Outline: as §1
# [3] = tested on: NCI-H661
# Outline: as §1
# [4] = tested on: NCI-H727
# Outline: as §1
# [5] = tested on: COR-L 105
# Outline: as §1
# [6] = tested on: PC-14
# Outline: as §1
# [7] = tested on: NCI-H441
# Outline: as §1
# [8] = tested on: NCI-H1437
# Outline: as §1
# [9] = tested on: HARA
# Outline: as §1
# [10] = tested on: NCI-H460
# Outline: as §1
# [11] = tested on: EKVX
# Outline: as §1
# [12] = tested on: NCI-H1666
# Outline: as §1
# [13] = tested on: CAL-12T
# Outline: as §1
# [14] = tested on: 201T
# Outline: as §1
# [15] = tested on: ABC-1
# Outline: as §1
# [16] = tested on: NCI-H1650
# Outline: as §1
# [17] = tested on: LOU-NH91
# Outline: as §1
# [18] = tested on: NCI-H2009
# Outline: as §1
# [19] = tested on: BEN
# Outline: as §1
smiles,measurement,setting,value
Nc1ccn([C@@H]2O[C@H](CO)[C@@H](O)[C@@H]2O)c(=O)n1 [Cytarabine] + CC(C)C[C@H](NC(=O)[C@H](Cc1ccccc1)NC(=O)c1cnccn1)B(O)O [Bortezomib] (partner 0.002 µM),relative viability,[1]; first compound 0.005 µM,0.932
same,relative viability,[1]; first compound 0.01581 µM,0.96
same,relative viability,[1]; first compound 0.05 µM,0.856
same,relative viability,[1]; first compound 0.1581 µM,0.676
same,relative viability,[1]; first compound 0.5 µM,0.614
same,relative viability,[2]; first compound 0.005 µM,1.16
same,relative viability,[2]; first compound 0.01581 µM,0.911
same,relative viability,[2]; first compound 0.05 µM,0.479
same,relative viability,[2]; first compound 0.1581 µM,0.0971
same,relative viability,[2]; first compound 0.5 µM,0.036
same,relative viability,[3]; first compound 0.005 µM,0.997
same,relative viability,[3]; first compound 0.01581 µM,0.667
same,relative viability,[3]; first compound 0.05 µM,0.596
same,relative viability,[3]; first compound 0.1581 µM,0.381
same,relative viability,[3]; first compound 0.5 µM,0.246
same,relative viability,[4]; first compound 0.005 µM,0.524
same,relative viability,[4]; first compound 0.01581 µM,0.558
same,relative viability,[4]; first compound 0.05 µM,0.484
same,relative viability,[4]; first compound 0.1581 µM,0.334
same,relative viability,[4]; first compound 0.5 µM,0.315
same,relative viability,[5]; first compound 0.005 µM,0.676
same,relative viability,[5]; first compound 0.01581 µM,0.699
same,relative viability,[5]; first compound 0.05 µM,0.464
same,relative viability,[5]; first compound 0.1581 µM,0.399
same,relative viability,[5]; first compound 0.5 µM,0.285
same,relative viability,[6]; first compound 0.005 µM,0.872
same,relative viability,[6]; first compound 0.01581 µM,0.88
same,relative viability,[6]; first compound 0.05 µM,0.641
same,relative viability,[6]; first compound 0.1581 µM,0.326
same,relative viability,[6]; first compound 0.5 µM,0.268
same,relative viability,[7]; first compound 0.005 µM,0.612
same,relative viability,[7]; first compound 0.01581 µM,0.376
same,relative viability,[7]; first compound 0.05 µM,0.483
same,relative viability,[7]; first compound 0.1581 µM,0.283
same,relative viability,[7]; first compound 0.5 µM,0.162
same,relative viability,[8]; first compound 0.005 µM,0.334
same,relative viability,[8]; first compound 0.01581 µM,0.287
same,relative viability,[8]; first compound 0.05 µM,0.243
same,relative viability,[8]; first compound 0.1581 µM,0.18
same,relative viability,[8]; first compound 0.5 µM,0.16
same,relative viability,[9]; first compound 0.005 µM,0.725
same,relative viability,[9]; first compound 0.01581 µM,0.642
same,relative viability,[9]; first compound 0.05 µM,0.652
same,relative viability,[9]; first compound 0.1581 µM,0.179
same,relative viability,[9]; first compound 0.5 µM,0.139
same,relative viability,[10]; first compound 0.005 µM,0.677
same,relative viability,[10]; first compound 0.01581 µM,0.968
same,relative viability,[10]; first compound 0.05 µM,0.265
same,relative viability,[10]; first compound 0.1581 µM,0.028
same,relative viability,[10]; first compound 0.5 µM,0.0192
same,relative viability,[11]; first compound 0.005 µM,1.22
same,relative viability,[11]; first compound 0.01581 µM,0.947
same,relative viability,[11]; first compound 0.05 µM,0.801
same,relative viability,[11]; first compound 0.1581 µM,0.361
same,relative viability,[11]; first compound 0.5 µM,0.178
same,relative viability,[12]; first compound 0.005 µM,0.7
same,relative viability,[12]; first compound 0.01581 µM,0.705
same,relative viability,[12]; first compound 0.05 µM,0.741
same,relative viability,[12]; first compound 0.1581 µM,0.353
same,relative viability,[12]; first compound 0.5 µM,0.318
same,relative viability,[13]; first compound 0.005 µM,0.933
same,relative viability,[13]; first compound 0.01581 µM,0.715
same,relative viability,[13]; first compound 0.05 µM,0.948
same,relative viability,[13]; first compound 0.1581 µM,0.379
same,relative viability,[13]; first compound 0.5 µM,0.267
same,relative viability,[14]; first compound 0.005 µM,1.07
same,relative viability,[14]; first compound 0.01581 µM,1.11
same,relative viability,[14]; first compound 0.05 µM,0.866
same,relative viability,[14]; first compound 0.1581 µM,1.01
same,relative viability,[14]; first compound 0.5 µM,1
same,relative viability,[15]; first compound 0.005 µM,0.307
same,relative viability,[15]; first compound 0.01581 µM,0.345
same,relative viability,[15]; first compound 0.05 µM,0.285
same,relative viability,[15]; first compound 0.1581 µM,0.233
same,relative viability,[15]; first compound 0.5 µM,0.29
same,relative viability,[16]; first compound 0.005 µM,0.215
same,relative viability,[16]; first compound 0.01581 µM,0.166
same,relative viability,[16]; first compound 0.05 µM,0.172
same,relative viability,[16]; first compound 0.1581 µM,0.161
same,relative viability,[16]; first compound 0.5 µM,0.154
same,relative viability,[17]; first compound 0.005 µM,0.406
same,relative viability,[17]; first compound 0.01581 µM,0.47
same,relative viability,[17]; first compound 0.05 µM,0.388
same,relative viability,[17]; first compound 0.1581 µM,0.338
same,relative viability,[17]; first compound 0.5 µM,0.357
same,relative viability,[18]; first compound 0.005 µM,1.05
same,relative viability,[18]; first compound 0.01581 µM,1.03
same,relative viability,[18]; first compound 0.05 µM,0.952
same,relative viability,[18]; first compound 0.1581 µM,0.634
same,relative viability,[18]; first compound 0.5 µM,0.311
same,relative viability,[19]; first compound 0.005 µM,0.667
same,relative viability,[19]; first compound 0.01581 µM,0.742
same,relative viability,[19]; first compound 0.05 µM,0.413
same,relative viability,[19]; first compound 0.1581 µM,0.282
same,relative viability,[19]; first compound 0.5 µM,0.233
COc1cc2nccc(Oc3ccc(NC(=O)Nc4cc(C)on4)c(Cl)c3)c2cc1OC [Tivozanib] + CC(C)C[C@H](NC(=O)[C@H](Cc1ccccc1)NC(=O)c1cnccn1)B(O)O [Bortezomib] (partner 0.002 µM),relative viability,[1]; first compound 0.005 µM,0.99
same,relative viability,[1]; first compound 0.01581 µM,1.02
same,relative viability,[1]; first compound 0.05 µM,1.08
same,relative viability,[1]; first compound 0.1581 µM,1.12
same,relative viability,[1]; first compound 0.5 µM,1.04
same,relative viability,[2]; first compound 0.005 µM,1.01
same,relative viability,[2]; first compound 0.01581 µM,1.05
same,relative viability,[2]; first compound 0.05 µM,1.06
same,relative viability,[2]; first compound 0.1581 µM,1.05
same,relative viability,[2]; first compound 0.5 µM,1.05
same,relative viability,[3]; first compound 0.005 µM,0.682
same,relative viability,[3]; first compound 0.01581 µM,0.818
same,relative viability,[3]; first compound 0.05 µM,0.753
same,relative viability,[3]; first compound 0.1581 µM,0.717
same,relative viability,[3]; first compound 0.5 µM,0.85
same,relative viability,[4]; first compound 0.005 µM,0.701
same,relative viability,[4]; first compound 0.01581 µM,0.818
same,relative viability,[4]; first compound 0.05 µM,0.772
same,relative viability,[4]; first compound 0.5 µM,0.873
same,relative viability,[5]; first compound 0.01581 µM,0.751
same,relative viability,[5]; first compound 0.05 µM,0.759
same,relative viability,[5]; first compound 0.1581 µM,0.702
same,relative viability,[5]; first compound 0.5 µM,0.681
same,relative viability,[6]; first compound 0.005 µM,0.821
same,relative viability,[6]; first compound 0.01581 µM,0.847
same,relative viability,[6]; first compound 0.05 µM,0.99
same,relative viability,[6]; first compound 0.1581 µM,0.811
same,relative viability,[6]; first compound 0.5 µM,0.812
same,relative viability,[7]; first compound 0.005 µM,0.43
same,relative viability,[7]; first compound 0.01581 µM,0.332
same,relative viability,[7]; first compound 0.05 µM,0.332
same,relative viability,[7]; first compound 0.1581 µM,0.453
same,relative viability,[7]; first compound 0.5 µM,0.34
same,relative viability,[8]; first compound 0.005 µM,0.487
same,relative viability,[8]; first compound 0.01581 µM,0.558
same,relative viability,[8]; first compound 0.05 µM,0.523
same,relative viability,[8]; first compound 0.1581 µM,0.508
same,relative viability,[8]; first compound 0.5 µM,0.399
same,relative viability,[9]; first compound 0.005 µM,1.03
same,relative viability,[9]; first compound 0.01581 µM,1.18
same,relative viability,[9]; first compound 0.05 µM,1.08
same,relative viability,[9]; first compound 0.1581 µM,1.27
same,relative viability,[9]; first compound 0.5 µM,1.14
same,relative viability,[10]; first compound 0.005 µM,1.13
same,relative viability,[10]; first compound 0.01581 µM,1.04
same,relative viability,[10]; first compound 0.05 µM,1
same,relative viability,[10]; first compound 0.1581 µM,1.12
same,relative viability,[10]; first compound 0.5 µM,1.03
same,relative viability,[11]; first compound 0.005 µM,0.95
same,relative viability,[11]; first compound 0.01581 µM,0.924
same,relative viability,[11]; first compound 0.05 µM,1.11
same,relative viability,[11]; first compound 0.1581 µM,0.987
same,relative viability,[11]; first compound 0.5 µM,1.02
same,relative viability,[12]; first compound 0.005 µM,0.746
same,relative viability,[12]; first compound 0.01581 µM,0.792
same,relative viability,[12]; first compound 0.05 µM,0.835
same,relative viability,[12]; first compound 0.1581 µM,0.74
same,relative viability,[12]; first compound 0.5 µM,0.875
same,relative viability,[13]; first compound 0.005 µM,0.86
same,relative viability,[13]; first compound 0.01581 µM,0.967
same,relative viability,[13]; first compound 0.05 µM,1.14
same,relative viability,[13]; first compound 0.5 µM,1.03
same,relative viability,[14]; first compound 0.005 µM,1.11
same,relative viability,[14]; first compound 0.01581 µM,1.08
same,relative viability,[14]; first compound 0.05 µM,1.06
same,relative viability,[14]; first compound 0.1581 µM,1.07
same,relative viability,[14]; first compound 0.5 µM,1.11
same,relative viability,[15]; first compound 0.005 µM,0.315
same,relative viability,[15]; first compound 0.01581 µM,0.3
same,relative viability,[15]; first compound 0.05 µM,0.277
same,relative viability,[15]; first compound 0.1581 µM,0.304
same,relative viability,[15]; first compound 0.5 µM,0.288
same,relative viability,[16]; first compound 0.005 µM,0.195
same,relative viability,[16]; first compound 0.01581 µM,0.21
same,relative viability,[16]; first compound 0.05 µM,0.209
same,relative viability,[16]; first compound 0.1581 µM,0.264
same,relative viability,[16]; first compound 0.5 µM,0.196
same,relative viability,[17]; first compound 0.005 µM,0.5
same,relative viability,[17]; first compound 0.01581 µM,0.489
same,relative viability,[17]; first compound 0.05 µM,0.722
same,relative viability,[17]; first compound 0.1581 µM,0.561
same,relative viability,[17]; first compound 0.5 µM,0.499
same,relative viability,[18]; first compound 0.005 µM,0.945
same,relative viability,[18]; first compound 0.01581 µM,1.02
same,relative viability,[18]; first compound 0.05 µM,1.04
same,relative viability,[18]; first compound 0.1581 µM,1.04
same,relative viability,[18]; first compound 0.5 µM,0.732
same,relative viability,[19]; first compound 0.005 µM,0.703
same,relative viability,[19]; first compound 0.01581 µM,0.847
same,relative viability,[19]; first compound 0.05 µM,0.873
same,relative viability,[19]; first compound 0.5 µM,0.86
